Values joined by “and” are separate entries in the source; they are usually repeats but may differ in a detail not shown here. Identical values can stand only once. Active and inactive are the calls of the source.
Columns and labels:
Cytochrome P450 1A2 = biological target: T1, Cytochrome P450 1A2 (Homo sapiens, UniProt P05177);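 also: PubChem cytochrome P450 panel assay, CYP1A2 panel member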
T1 sequence (P05177 whole entry): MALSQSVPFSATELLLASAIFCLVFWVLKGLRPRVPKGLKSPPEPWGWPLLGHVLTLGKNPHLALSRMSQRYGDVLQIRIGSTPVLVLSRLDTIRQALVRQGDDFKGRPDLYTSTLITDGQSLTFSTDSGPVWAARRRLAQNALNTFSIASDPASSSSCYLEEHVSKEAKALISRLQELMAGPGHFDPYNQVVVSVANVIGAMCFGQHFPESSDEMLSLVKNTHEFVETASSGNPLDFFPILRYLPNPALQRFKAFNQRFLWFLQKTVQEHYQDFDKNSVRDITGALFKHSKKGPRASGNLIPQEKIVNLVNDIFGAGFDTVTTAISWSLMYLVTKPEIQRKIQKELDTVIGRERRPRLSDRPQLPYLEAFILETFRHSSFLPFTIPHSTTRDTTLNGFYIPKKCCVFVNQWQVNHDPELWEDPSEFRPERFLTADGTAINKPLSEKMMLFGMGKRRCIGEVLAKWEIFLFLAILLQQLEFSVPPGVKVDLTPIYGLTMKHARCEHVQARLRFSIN

Cytochrome P450 3A4 = Cytochrome P450 3A4 (Homo sapiens, UniProt P08684);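 also: CYP3A4 tested as one member of a cytochrome P450 panel screen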
Cytochrome P450 2C19 = Cytochrome P450 2C19 (Homo sapiens, UniProt P33261); assay: Cytochrome panel assay with activity outcomes. Panel member name: p450-cyp2c19 Compounds with AC50 equal or less than 10 uM are considered active; assay type: functional; conditions: read-out: AC50
[1] = Luminescence Cell-Based Dose Response HTS to Identify Activators of Luciferase Translation or Activity in H4 […] Cells. [Related pubchem assays: 1829 (Project Summary), 1814 (Primary HTS)]; assay type: functional
Cytochrome P450 2C9 = Cytochrome P450 2C9 (Homo sapiens, UniProt P11712)
[2] = biological target: T2, Rac GTPase-activating protein 1 (Homo sapiens, UniProt Q9H0H5); assay: MgcRacGAP GTPase-activating activity inhibitors, confirmation, biochemical, ADP Hunter fluorescence, primary and confirmatory (AID 624330); assay type: functional
T2 sequence (Q9H0H5 whole entry): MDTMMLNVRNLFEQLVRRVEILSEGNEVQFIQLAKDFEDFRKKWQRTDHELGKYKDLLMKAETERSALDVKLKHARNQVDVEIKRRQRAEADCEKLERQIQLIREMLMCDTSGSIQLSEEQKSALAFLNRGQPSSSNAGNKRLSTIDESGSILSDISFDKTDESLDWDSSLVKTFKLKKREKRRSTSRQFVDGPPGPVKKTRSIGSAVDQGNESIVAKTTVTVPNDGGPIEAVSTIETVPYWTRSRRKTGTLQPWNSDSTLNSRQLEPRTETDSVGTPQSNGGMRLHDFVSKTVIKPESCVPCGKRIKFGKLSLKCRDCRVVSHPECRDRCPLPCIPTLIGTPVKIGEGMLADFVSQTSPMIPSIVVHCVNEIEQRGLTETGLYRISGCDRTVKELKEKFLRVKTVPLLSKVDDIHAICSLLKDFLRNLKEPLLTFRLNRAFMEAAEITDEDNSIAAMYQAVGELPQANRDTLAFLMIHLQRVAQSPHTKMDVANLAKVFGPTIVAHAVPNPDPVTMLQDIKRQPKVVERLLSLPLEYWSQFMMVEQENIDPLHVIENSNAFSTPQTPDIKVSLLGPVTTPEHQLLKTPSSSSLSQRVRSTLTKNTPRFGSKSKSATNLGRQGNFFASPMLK

H4 = assay: Luminescence Cell-Based Dose Response HTS to Identify Activators of 5'UTR Stem-Loop Driven Prion Protein mRNA Translation in H4 Neuroglioblastoma Cells. [Related pubchem assays: 1829 (Project Summary), 1814 (Primary HTS)]; assay type: functional; conditions: Homo sapiens

Chain of Cytochrome P450 3A4 (P08684 whole entry): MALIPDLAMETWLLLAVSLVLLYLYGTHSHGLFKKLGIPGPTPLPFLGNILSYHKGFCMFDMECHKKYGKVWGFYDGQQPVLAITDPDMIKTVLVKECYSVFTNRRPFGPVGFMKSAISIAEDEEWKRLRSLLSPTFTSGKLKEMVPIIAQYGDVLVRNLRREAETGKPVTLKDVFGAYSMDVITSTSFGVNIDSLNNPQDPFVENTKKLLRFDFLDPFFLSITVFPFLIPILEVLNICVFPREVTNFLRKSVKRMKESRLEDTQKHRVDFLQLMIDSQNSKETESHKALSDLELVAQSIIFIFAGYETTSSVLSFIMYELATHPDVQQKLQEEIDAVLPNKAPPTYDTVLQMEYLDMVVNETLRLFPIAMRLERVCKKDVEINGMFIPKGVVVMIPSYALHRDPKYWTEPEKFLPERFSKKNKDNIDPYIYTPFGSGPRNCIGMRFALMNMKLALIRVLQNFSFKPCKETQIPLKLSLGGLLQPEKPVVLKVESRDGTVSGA
Chain of Cytochrome P450 2C9 (P11712 whole entry): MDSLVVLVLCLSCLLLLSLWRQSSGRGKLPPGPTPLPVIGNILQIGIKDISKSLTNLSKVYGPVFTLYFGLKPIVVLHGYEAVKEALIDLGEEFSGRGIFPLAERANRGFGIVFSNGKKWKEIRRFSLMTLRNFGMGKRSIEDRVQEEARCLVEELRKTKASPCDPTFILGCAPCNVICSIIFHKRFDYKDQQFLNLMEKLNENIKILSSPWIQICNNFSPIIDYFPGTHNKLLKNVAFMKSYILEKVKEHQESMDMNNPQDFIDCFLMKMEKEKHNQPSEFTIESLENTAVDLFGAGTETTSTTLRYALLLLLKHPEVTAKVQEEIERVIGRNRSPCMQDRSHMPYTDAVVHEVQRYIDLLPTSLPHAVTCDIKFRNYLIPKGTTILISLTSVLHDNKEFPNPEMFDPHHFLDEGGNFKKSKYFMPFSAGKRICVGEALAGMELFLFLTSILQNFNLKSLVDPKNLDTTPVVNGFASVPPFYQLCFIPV
Chain of Cytochrome P450 2C19 (P33261 whole entry): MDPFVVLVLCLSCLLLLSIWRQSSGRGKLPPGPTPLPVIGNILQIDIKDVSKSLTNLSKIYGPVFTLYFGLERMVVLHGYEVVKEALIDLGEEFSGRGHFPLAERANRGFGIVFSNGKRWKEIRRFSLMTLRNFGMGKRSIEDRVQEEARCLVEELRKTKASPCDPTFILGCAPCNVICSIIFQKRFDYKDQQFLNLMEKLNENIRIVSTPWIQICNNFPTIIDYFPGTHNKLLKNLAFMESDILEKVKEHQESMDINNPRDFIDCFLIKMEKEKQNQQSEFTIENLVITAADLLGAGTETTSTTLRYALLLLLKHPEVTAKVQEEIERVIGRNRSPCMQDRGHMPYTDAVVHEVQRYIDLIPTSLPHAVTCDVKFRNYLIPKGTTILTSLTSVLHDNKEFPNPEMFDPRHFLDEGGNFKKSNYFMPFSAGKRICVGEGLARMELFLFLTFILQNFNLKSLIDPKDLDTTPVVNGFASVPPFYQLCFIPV

Compound	AC50 (Cytochrome P450 3A4)	AC50 (Cytochrome P450 2C9)	further results
CCNc1ncc2nc(-c3ccc(OC)cc3)c(=O)n(CCC#N)c2n1	15.8 µM (inconclusive)	–	AC50 (Cytochrome P450 1A2): 10 µM (inconclusive)
Cc1ccccc1-c1ccc2ncnc(N3CCNCC3)c2c1	15.8 µM (inconclusive)	–	AC50 (Cytochrome P450 2C19): 15.8 µM (inconclusive)
CCn1cc(C(=O)O)c(=O)c2cc3c(cc21)OCO3 [OXOLINIC ACID]	–	–	AC50 (Cytochrome P450 1A2): 5.01 µM (inconclusive) and 2.51 µM (inconclusive)
Cc1ccc(NC(=O)c2ccc(OC(=O)CCN3C(=O)c4ccccc4C3=O)cc2)cc1	–	–	EC50 [1]: 37.8 µM (active)
C[N+]1(C)CCN(c2ccccc2)CC1 [DIMETHYLPHENYLPIPERAZINIUM]	10 µM (inconclusive)	–	–
O=S(=O)(O)c1ccc(/N=N\c2ccc3c(S(=O)(=O)O)cccc3c2O)c2ccccc12	–	–	AC50 (Cytochrome P450 1A2): 3.16 µM (inconclusive)
CC(C)CC1NC(=S)N(C2CCCCC2)C1=O (stereo not given)	20 µM (inconclusive)	–	–
CCC(O)CNc1nc(-n2nc(C)cc2C)nc2sc3c(c12)CC(C)(C)OC3 (stereo not given)	7.08 µM (inconclusive)	–	AC50 (Cytochrome P450 2C19): 20 µM (inconclusive)
Cc1ccc(NC(=O)C(C)N2C(=O)C3C4CC(C(Br)C4Br)C3C2=O)cc1 (stereo not given)	–	–	AC50 (Cytochrome P450 1A2): 25.1 µM (inconclusive)
COc1cccc(Cn2c(=O)c(-c3cn(C)c4ccccc34)nc3cnc(N4CCOCC4)nc32)c1	–	–	AC50 (Cytochrome P450 1A2): 25.1 µM (inconclusive)
O=C1CN2CCN(CC2)CC(=O)Nc2ccc(cc2)S(=O)(=O)c2ccc(cc2)NC(=O)CN2CCN(CC2)CC(=O)Nc2ccc(cc2)S(=O)(=O)c2ccc(cc2)N1	–	0.398 µM (inconclusive)	–
Nc1ccc(Oc2ccc3nc(-c4ccccc4)c(-c4ccc([N+](=O)[O-])cc4)nc3c2)cc1	–	3.98 µM (inconclusive)	–
CCC(=O)N[C@@H]1CCc2cccc(OC)c2C1	–	15.8 µM (inconclusive)	–
COC(=O)C1CCN(c2cc(=O)n(C3CCCCC3)c(=O)[nH]2)CC1	14.1 µM (inconclusive)	7.94 µM (inconclusive)	–
O=c1c(-c2cccc(Cl)c2)nc2cncnc2n1-c1ccccc1	25.1 µM (inconclusive)	–	–
CN(CCc1ccc(Cl)c(Cl)c1)[C@H]1CCCC[C@H]1N1CCCC1	–	–	AC50 (Cytochrome P450 1A2): 31.6 µM (inconclusive)
CC(=O)OC1COC(N2CCc3cc([N+](=O)[O-])ccc32)C(OC(C)=O)C1OC(C)=O (stereo not given)	25.1 µM (inconclusive)	–	AC50 (Cytochrome P450 2C19): 3.98 µM (inconclusive)
CN1CCN(CCOCCOc2ccc(Br)cc2Cl)CC1	–	–	IC50 [2]: 84.1 µM (active)
Cc1cc(Br)ccc1NC(=O)CCSc1ccccc1	6.31 µM (inconclusive)	–	–
Cc1c(C)c2ccc(OCC(=O)Nc3cccnc3)c(C)c2oc1=O	–	–	EC50 (H4): 16 µM (active); EC50 [1]: 22 µM (active)
c1cnc(N2CC[C@@]3(CCCNC3)C2)nc1	31.6 µM (inconclusive)	–	AC50 (Cytochrome P450 1A2): 25.1 µM (inconclusive)
CC(C)C(=O)Nc1ccc(C(=O)NNC(=O)CCCOc2ccc(Cl)cc2Cl)cc1	–	2.51 µM (inconclusive)	–
COc1ccc2oc(C(=O)c3ccccc3)c(N)c2c1	14.1 µM (inconclusive)	–	AC50 (Cytochrome P450 2C19): 5.01 µM (inconclusive)
O=C(Cc1ccccc1)NC(NCCc1ccccc1)C(Cl)(Cl)Cl (stereo not given)	–	–	AC50 (Cytochrome P450 1A2): 25.1 µM (inconclusive)
COc1ccc2c(CC(=O)NCC3CCC(C(=O)O)CC3)cc(=O)oc2c1 (stereo not given)	–	15.8 µM (inconclusive)	AC50 (Cytochrome P450 1A2): 22.4 µM (inconclusive)
Cc1noc(C)c1C(=O)N1CCC2(CCN(Cc3ccncc3)CC2)CC1	12.6 µM (inconclusive)	–	–
COc1cc(OC)c(OC)cc1CN1CCN(C(=O)c2cccc3ccccc23)CC1	–	–	IC50 [2]: 244 µM (active)

Compound	AC50 (Cytochrome P450 3A4)	AC50 (Cytochrome P450 2C9)	further results
COC(=O)[C@@]1(Cc2ccc(F)cc2)[C@@H]2C(=CC(=O)[C@H]2CC(=O)C(=O)N2CCCC2)CN1C(=O)c1ccccc1	5.01 µM (inconclusive)	–	–
CCOC(=O)c1sc(NC(=O)CCCCCN2C(=O)c3cccc4cccc(c34)C2=O)nc1C	5.01 µM (inconclusive)	2.24 µM (inconclusive)	AC50 (Cytochrome P450 2C19): 6.31 µM (inconclusive)
O=C(CSc1ccc2ccccc2c1)N1CCN(c2ccc(O)cc2)CC1	–	–	IC50 [2]: 45.1 µM (active)
COc1ccc(NC2CCCN(C(=O)CCCn3cncn3)C2)cc1OC (stereo not given)	–	–	IC50 [2]: 237 µM (active)
CC(C)(C)C(=O)OCc1cn(-c2ccc(Cl)cc2)nn1	–	28.2 µM (inconclusive)	–
COc1cc(C(=O)N/N=C(\C)c2ccc(NC(=O)Cc3ccccc3)cc2)ccc1O	–	–	IC50 [2]: 145 µM (active)
CCc1noc(C)c1C(=O)Nc1nc(-c2cc(C)ccc2C)c(C)s1	–	7.94 µM (inconclusive)	AC50 (Cytochrome P450 2C19): 7.08 µM (inconclusive); AC50 (Cytochrome P450 1A2): 15.8 µM (inconclusive)
COCCNCc1nc(O)c2c(-c3ccccc3)c(C)sc2n1	–	–	IC50 [2]: 225 µM (active)
COc1ccccc1-c1cncnc1NCCc1cnc[nH]1	–	0.501 µM (inconclusive)	–
CCOC(=O)Nc1ccc2c(c1)N(C(=O)CCN1CCN(C)CC1)c1ccccc1S2	1.26 µM (inconclusive)	–	AC50 (Cytochrome P450 2C19): 1.26 µM (inconclusive)
COc1ccccc1-n1c(SCC(=O)N2CCCC2)nc2cccnc21	–	1 µM (inconclusive)	AC50 (Cytochrome P450 1A2): 0.1 µM (inconclusive)
Cc1ccccc1-c1ccc2ncnc(NCc3cccs3)c2c1	–	1.26 µM (inconclusive)	–
CCC(=O)NC(Nc1sc2c(c1C(=O)OC)CCCC2)(C(F)(F)F)C(F)(F)F	–	1.26 µM (inconclusive)	–
O=C(CN(c1ccccc1)S(=O)(=O)c1ccccc1[N+](=O)[O-])NN=C1CCCCCCC1	–	1.58 µM (inconclusive)	–
O=C(CN1CCN(c2ccc(Cl)cc2)CC1)Nc1ccc(F)c(F)c1	25.1 µM (inconclusive)	–	AC50 (Cytochrome P450 1A2): 14.1 µM (inconclusive)
CS(=O)(=O)N1CCC2(CC1)CN(c1ncccn1)C2	20 µM (inconclusive)	–	–
O=C1CC(N(O)C2CC(=O)N(Cc3ccccc3)C2=O)C(=O)N1Cc1ccccc1 (stereo not given)	–	11.2 µM (inconclusive)	AC50 (Cytochrome P450 2C19): 2 µM (inconclusive); AC50 (Cytochrome P450 1A2): 39.8 µM (inconclusive)
N#CC(C#N)=Cc1ccc([N+](=O)[O-])c(O)c1	1.58 µM (inconclusive)	31.6 µM (inconclusive)	AC50 (Cytochrome P450 1A2): 31.6 µM (inconclusive)
CCNc1ncc2nc(C)c(=O)n(CCc3ccccc3)c2n1	15.8 µM (inconclusive)	–	–
CCCCOC(=O)CSc1nnc(-c2cc(OC)c(OC)c(OC)c2)o1	25.1 µM (inconclusive)	8.91 µM (inconclusive)	–
CCOC(=O)c1cc(NC(=O)c2ccc(OC)cc2)c(=O)oc1-c1ccccc1	–	2.24 µM (inconclusive)	–
COc1ccc(CNc2ncncc2-c2ccccc2OC)c(OC)c1	–	0.794 µM (inconclusive)	–
COc1ccc(OC)c(CN2CCN(Cc3cccc4ccccc34)CC2)c1	–	–	IC50 [2]: 66 µM (active)
O=C(O)c1cc(-c2ccc(-c3ccccc3)cc2)nc2cc3ccccc3cc12	–	–	AC50 (Cytochrome P450 2C19): 3.98 µM (inconclusive); AC50 (Cytochrome P450 1A2): 0.794 µM (inconclusive)
CN(C)/N=C/c1ccc(OC(=O)c2cccc([N+](=O)[O-])c2)cc1	–	–	IC50 [2]: 50.4 µM (active)
COc1ccccc1N1CCN(CC(=O)c2ccc(F)cc2)CC1	–	–	IC50 [2]: 157 µM (active)

Reference: ChEMBL document CHEMBL1201862, “PubChem BioAssay data set” (2004)
